Results reported in patent US8519128B2, “Pyripyropene derivatives having an ACAT2-inhibiting activity” (The Kitasato Institute, priority 2007, dated 2013).
Like-named read-outs stand apart in the source and are kept apart here.

Biological target: T1, ACAT 2 (Mus musculus, UniProt O88908)
T1 construct: The source of ACAT 2 enzyme used was a membrane fraction derived from mouse liver microsome; from tissue; host or cells: mouse liver (microsome fraction)
T1 sequence (O88908 1-525): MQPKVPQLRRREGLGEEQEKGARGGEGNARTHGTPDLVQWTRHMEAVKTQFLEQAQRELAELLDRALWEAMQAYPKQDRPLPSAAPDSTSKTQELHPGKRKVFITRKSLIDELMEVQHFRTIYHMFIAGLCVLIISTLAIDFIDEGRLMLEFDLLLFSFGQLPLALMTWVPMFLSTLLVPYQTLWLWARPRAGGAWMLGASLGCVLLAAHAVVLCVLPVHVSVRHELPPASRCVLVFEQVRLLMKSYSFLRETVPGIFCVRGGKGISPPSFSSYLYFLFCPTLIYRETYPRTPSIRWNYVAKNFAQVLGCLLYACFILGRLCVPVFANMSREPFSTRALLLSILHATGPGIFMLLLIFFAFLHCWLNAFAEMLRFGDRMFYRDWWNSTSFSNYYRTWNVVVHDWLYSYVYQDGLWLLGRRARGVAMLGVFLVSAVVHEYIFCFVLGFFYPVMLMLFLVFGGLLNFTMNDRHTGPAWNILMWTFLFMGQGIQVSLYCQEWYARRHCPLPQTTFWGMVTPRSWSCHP
Experiment: ACAT-inhibiting activity, mouse liver microsome membrane fraction, [14C]oleoyl-CoA
Assay type: biochemical
Conditions: for Specific activity: (inhibitory activity of test compound)/(inhibitory activity of pyripyropene A): relative to pyripyropene A
Method: The source of ACAT 2 enzyme used was a membrane fraction derived from mouse liver microsome. Mouse liver was homogenized in buffer solution A (50 mM Tris-HCl (pH 7.8), 1 mM ethylenediamine tetraacetate, and 1 mM phenylmethanesulfonyl fluoride) using a homogenizer of the Potter type (Tokyo-RIKO). The homogenate was centrifuged at 12000×g, and the supernatant was ultracentrifuged at 100000×g. The sediment was taken as a microsome fraction, and this fraction was adjusted to have a protein concentration of 5 mg/ml using buffer solution A.
The chloroform layer was evaporated to dryness and was used to spot a thin layer chromatography plate (silica gel plate, Merck, 0.5 mm thickness). Elution for separation was carried out using a solvent of hexane/diethyl ether/acetic acid (70:30:1, v/v).

[1] = mouse liver microsome, 5 minutes at 37° C.

Row | IC50 [1] [nM] | Specific activity: (inhibitory activity of test compound)/(inhibitory activity of pyripyropene A) | Compound | IC50 [nM]
1 | 10 to 100 | ++ (10 > specific activity > 5) | CC(=O)OCC1(C)C2C[C@H](OC(=O)c3ccc(I)cc3)[C@@]3(C)Oc4cc(-c5cccnc5)oc(=O)c4[C@H](O)C3[C@@]2(C)CC[C@@H]1OC(C)=O (stereo partly drawn) [PRD 006, 7-p-iodobenzoyl-7-deacetylpyripyropene A] | –
2 | 10 to 100 | + (5 > specific activity > 1) | CC(=O)OCC1(C)C2C[C@H](OC(=O)Oc3ccccc3)[C@@]3(C)Oc4cc(-c5cccnc5)oc(=O)c4[C@H](O)C3[C@@]2(C)CC[C@@H]1OC(C)=O (stereo partly drawn) [PRD 057, 7-deacetyl-7-O-phenoxycarbonylpyripyropene A] | –
3 | 10 to 100 | +++ (50 > specific activity > 10) | CC(=O)OCC1(C)C2C[C@H](OC(=O)c3cccc(I)c3)[C@@]3(C)Oc4cc(-c5cccnc5)oc(=O)c4[C@H](O)C3[C@@]2(C)CC[C@@H]1OC(C)=O (stereo partly drawn) [PRD 005, 7-m-iodobenzoyl-7-deacetylpyripyropene A] | –
4 | 10 to 100 | +++ (50 > specific activity > 10) | CC(=O)OCC1(C)C2C[C@H](OC(=O)c3ccccc3)[C@@]3(C)Oc4cc(-c5cccnc5)oc(=O)c4[C@H](O)C3[C@@]2(C)CC[C@@H]1OC(C)=O (stereo partly drawn) [PRD 027, 7-benzoyl-7-deacetylpyripyropene A] | –
5 | 10 to 100 | +++ (50 > specific activity > 10) | CC(=O)OCC1(C)C2C[C@H](OC(=O)Oc3ccc(Cl)cc3)[C@@]3(C)Oc4cc(-c5cccnc5)oc(=O)c4[C@H](O)C3[C@@]2(C)CC[C@@H]1OC(C)=O (stereo partly drawn) [PRD 058, 7-O-p-chlorophenoxycarbonyl-7-deacetylpyripyropene A] | –
6 | 10 to 100 | +++ (50 > specific activity > 10) | CC(=O)OCC1(C)C2C[C@H](OC(=O)c3ccccc3F)[C@@]3(C)Oc4cc(-c5cccnc5)oc(=O)c4[C@H](O)C3[C@@]2(C)CC[C@@H]1OC(C)=O (stereo partly drawn) [PRD 028, 7-o-fluorobenzoyl-7-deacetylpyripyropene A] | –
7 | – | ++++ (100 > specific activity > 50) | CC(=O)OCC1(C)C2C[C@H](OC(=O)c3ccccc3C)[C@@]3(C)Oc4cc(-c5cccnc5)oc(=O)c4[C@H](O)C3[C@@]2(C)CC[C@@H]1OC(C)=O (stereo partly drawn) [PRD 007, 7-o-methylbenzoyl-7-deacetylpyripyropene A] | –
8 | 10 to 100 | + (5 > specific activity > 1) | COc1ccccc1C(=O)O[C@H]1CC2C(C)(COC(C)=O)[C@@H](OC(C)=O)CC[C@]2(C)C2[C@@H](O)c3c(cc(-c4cccnc4)oc3=O)O[C@@]21C (stereo partly drawn) [PRD 001, 7-o-methoxybenzoyl-7-deacetylpyripyropene A] | –

Continued, compound first:

Row | Compound | IC50 [1] [nM] | Specific activity: (inhibitory activity of test compound)/(inhibitory activity of pyripyropene A) | IC50 [nM]
9 | CC12COC(c3ccccc3)O[C@H]1CC[C@@]1(C)C2C[C@H](OC(=O)c2ccc(F)cc2)[C@@]2(C)Oc3cc(-c4cccnc4)oc(=O)c3[C@H](O)C12 (stereo partly drawn) [PRD 048, 1,11-O-benzylidene-7-O-p-fluorobenzoyl-1,7,11-trideacetylpyripyropene A] | 10 to 100 | ++ (10 > specific activity > 5) | –
10 | CC(=O)OCC1(C)C2C[C@H](OC(=O)Cn3cnnn3)[C@@]3(C)Oc4cc(-c5cccnc5)oc(=O)c4[C@H](O)C3[C@@]2(C)CC[C@@H]1OC(C)=O (stereo partly drawn) [PRD 092, 7-O-2-(1H-tetrazol-1-yl)acetyl-7-deacetylpyripyropene A] | – | + (5 > specific activity > 1) | 100 to 1000
11 | CC(=O)OCC1(C)C2C[C@H](OC(=O)c3ccc4ccccc4c3)[C@@]3(C)Oc4cc(-c5cccnc5)oc(=O)c4[C@H](O)C3[C@@]2(C)CC[C@@H]1OC(C)=O (stereo partly drawn) [PRD 037, 7-2-naphthoyl-7-deacetylpyripyropene A] | 100 to 1000 | + (5 > specific activity > 1) | –
12 | CC12COC(c3ccccc3)O[C@H]1CC[C@@]1(C)C2C[C@H](OC(=O)c2ccccc2F)[C@@]2(C)Oc3cc(-c4cccnc4)oc(=O)c3[C@H](O)C12 (stereo partly drawn) [PRD 046, 1,11-O-benzylidene-7-O-o-fluorobenzoyl-1,7,11-trideacetylpyripyropene A] | 10 to 100 | +++ (50 > specific activity > 10) | –
13 | CC(=O)OCC1(C)C2C[C@H](OC(=O)C3CCC(C)CC3)[C@@]3(C)Oc4cc(-c5cccnc5)oc(=O)c4[C@H](O)C3[C@@]2(C)CC[C@@H]1OC(C)=O (stereo partly drawn) [PRD 085, 7-O-4-trans-methylcyclohexanecarboxyl-7-deacetylpyripyropene A] | 10 to 100 | + (5 > specific activity > 1) | –
14 | CC(=O)OCC1(C)C2C[C@H](OC(=O)c3ccc(N=[N+]=[N-])cc3)[C@@]3(C)Oc4cc(-c5cccnc5)oc(=O)c4[C@H](O)C3[C@@]2(C)CC[C@@H]1OC(C)=O (stereo partly drawn) [PRD 030, 7-O-p-azidebenzoyl-7-deacetylpyripyropene A] | 10 to 100 | ++ (10 > specific activity > 5) | –
15 | CC(=O)OCC1(C)C2C[C@H](OC(=O)C3CCCCC3)[C@@]3(C)Oc4cc(-c5cccnc5)oc(=O)c4[C@H](O)C3[C@@]2(C)CC[C@@H]1OC(C)=O (stereo partly drawn) [PRD 021, 7-cyclohexanecarboxyl-7-deacetylpyripyropene A] | – | ++++ (100 > specific activity > 50) | < 10
16 | CC12COC(c3ccccc3)O[C@H]1CC[C@@]1(C)C2C[C@H](OC(=O)c2ccc(Cl)cc2)[C@@]2(C)Oc3cc(-c4cccnc4)oc(=O)c3[C@H](O)C12 (stereo partly drawn) [PRD 051, 1,11-O-benzylidene-7-O-p-chlorobenzoyl-1,7,11-trideacetylpyripyropene A] | 10 to 100 | ++ (10 > specific activity > 5) | –
17 | COc1ccc(-n2nnnc2S[C@@H]2CC3C(C)(COC(C)=O)[C@@H](OC(C)=O)CC[C@]3(C)C3[C@@H](O)c4c(cc(-c5cccnc5)oc4=O)O[C@@]32C)cc1 (stereo partly drawn) [PRD 066, 7-(R)-{sulfinyl-5-(p-methoxyphenyl)tetrazol-1-yl}-7-(S)-deacetylpyripyropene A] | 100 to 1000 | + (5 > specific activity > 1) | –
18 | COCCOCOCC(=O)O[C@H]1CC2C(C)(COC(C)=O)[C@@H](OC(C)=O)CC[C@]2(C)C2[C@@H](O)c3c(cc(-c4cccnc4)oc3=O)O[C@@]21C (stereo partly drawn) [PRD 108, 7-O-methoxyethoxymethoxyacetyl-7-deacetylpyripyropene A] | 100 to 1000 | + (5 > specific activity > 1) | –
19 | CC(=O)OCC1(C)C2C[C@H](OC(=O)CCN3CCN(C)CC3)[C@@]3(C)Oc4cc(-c5cccnc5)oc(=O)c4[C@H](O)C3[C@@]2(C)CC[C@@H]1OC(C)=O (stereo partly drawn) [PRD 104, 7-O-3-(4-methylpiperazin-1-yl)propionyl-7-deacetylpyripyropene A] | 100 to 1000 | + (5 > specific activity > 1) | –
20 | COCOCC(=O)O[C@H]1CC2C(C)(COC(C)=O)[C@@H](OC(C)=O)CC[C@]2(C)C2[C@@H](O)c3c(cc(-c4cccnc4)oc3=O)O[C@@]21C (stereo partly drawn) [PRD 106, 7-O-methoxymethoxyacetyl-7-deacetylpyripyropene A] | – | + (5 > specific activity > 1) | 100 to 1000
21 | CSc1cccc(C(=O)O[C@H]2CC3C(C)(COC(C)=O)[C@@H](OC(C)=O)CC[C@]3(C)C3[C@@H](O)c4c(cc(-c5cccnc5)oc4=O)O[C@@]32C)c1 (stereo partly drawn) [PRD 023, 7-m-methylthiobenzoyl-7-deacetylpyripyropene A] | 10 to 100 | +++ (50 > specific activity > 10) | –
22 | CC12COC(c3ccccc3)O[C@H]1CC[C@@]1(C)C2C[C@H](OC(=O)c2cccc(Br)c2)[C@@]2(C)Oc3cc(-c4cccnc4)oc(=O)c3[C@H](O)C12 (stereo partly drawn) [PRD 052, 1,11-O-benzylidene-7-O-m-bromobenzoyl-1,7,11-trideacetylpyripyropene A] | 10 to 100 | ++ (10 > specific activity > 5) | –
23 | CC12COC(c3ccccc3)O[C@H]1CC[C@@]1(C)C2C[C@H](OC(=O)c2ccccc2Cl)[C@@]2(C)Oc3cc(-c4cccnc4)oc(=O)c3[C@H](O)C12 (stereo partly drawn) [PRD 049, 1,11-O-benzylidene-7-O-o-chlorobenzoyl-1,7,11-trideacetylpyripyropene A] | 10 to 100 | +++ (50 > specific activity > 10) | –
